Read-outs that look alike come from different tables or passages of the source.
What was measured:
[1] = system: NOD-scid/scid females; assay: Adoptive transfer of diabetes; format: in vivo, mouse; conditions: 50 mg/kg daily, up to week 5 post transfer
Procedure: Single-cell suspensions of splenic leucocytes pooled from 8-10 diabetic NOD females were prepared by passage through Nitex 110 mesh, and red blood cells were lysed in 10× Gey's solution. Aliquots of 1×10^7 splenocytes were adoptively transferred intravenously into 4-week-old NOD/Lt-scid/scid females (The Jackson Laboratory, Bar Harbor, Me.). […] Mice were monitored for diabetes development by testing urinary glucose every week from second week after the transfer by Chemstrip uGK strips (Boehringer Mannheim, Indianapolis, Ind.). Mice with glycosuria over 500 mg/dl (+++) on consecutive weekly tests were considered diabetic, with the first detection of chronic glycosuria taken as the date of IDDM onset.

[2] = system: HaCaT human epidermal cells; assay: UVB-induced PGE2 release (EIA); format: cell-based; conditions: light or radiation study, UVB 25 mj/cm^2, 6 h, read-out: inhibition in UVB light induced prostaglandin release
From the text: HaCaT, which is a spontaneously transformed human epidermal cell line (16) was maintained in Dulbecco's modified Eagle's medium (DMEM) supplemented with 10% fetal bovine serum (Summit Biotech, Ft. Collins, Colo.).
A bank of 8-FSX24T12/HO/UVB lamps (National Biological Corporation, Twinsburg, Ohio) that emits light predominantly in the UVB range, 280-320 nm was used to irradiate mice and cell cultures. The irradiance of UVB lamps was always measured before irradiation using a UVB meter (model—500C obtained from National Biological Corporation, Twinsburg, Ohio). The dose of UVB light used to irradiate cultures was 25 mj/cm^2. Anesthetized mice received UVB radiations to a 2.0 cm^2 area on their dorsal surface. […]
Confluent HaCaT cells cultured in 24-well culture dishes were washed three times with serum-free DMEM containing 1% bovine serum albumin (BSA) (Cayman chemicals, Ann Arbor, Mich.) and incubated with 3-30 μM compound compound 6 for 1 hour at 37° C. After incubation the cells were washed twice with PBS, and either exposed to 25 mj/cm^2 UVB light or stimulated with 50 ng/ml rhEGF, and fed with serum-free DMEM containing 1% BSA. compound 6 was readministered and the cells were incubated for 6 h at 37° C. […] Cellular protein was determined using the Pierce's BCA protein assay method (Smith, P. K., et al., 1985, Anal Biochem. 150 (1):76-85).

[3] = system: NOD females; assay: Spontaneous diabetes in NOD females (incidence, IPGTT, insulitis); format: in vivo, mouse
Procedure: Mice were monitored for diabetes development by testing blood glucose from 10 wk of age by One Touch Profile diabetes tracking system, as described above.
Intraperitoneal glucose tolerance test (IPGTI) was performed in the group of non-diabetic WHI-P131-treated and vehicle-treated control NOD females on the end of experimental period (25 wk of age of NOD mice). Mice were fasted for 10 hours, and the glucose solution (1.5 g/kg body weight) was injected i.p. Before and after injection of glucose, blood samples were taken and blood glucose levels were measured (as described above) at 0, 30, 60 and 120 min time points.
The group of control and WHI-P131-treated non-diabetic NOD females was sacrificed at the end of experimental period, at 25 wksof age, and characteristic histopathologic lesion of islets (insulitis) was evaluated in each mouse scoring at least 25 islets per mouse. Briefly, pancreas was removed, fixed in 10% formalin, parafin embedded, cut and stained with hematoxylin and eosin for light microscopic examinations.

[4] = system: NALM-6 (pre-B ALL); assay: Methylcellulose clonogenic assay; format: cell-based, human
Procedure: The antileukemic activity of compound 6 against clonogenic tumor cells was examined using a methylcellulose colony assay system (Uckun, F. M., et al., J. Exp. Med. 163: 347-368, 1986; Messinger, Y., et al., Clin Cancer Res. 4: 165-70, 1998). In brief, cells (10^5/ml in RPMI-10% FBS) were treated overnight at 37° C. with compound 6 at varying concentrations. After treatment, cells were washed twice, plated at 10^4 or 10^5 cells/ml in RPMI-10% FMS-0.9% methylcellulose in Petri dishes, and cultured for 7 days at 37° C. in a humidified 5% CO2 incubator. Subsequently, leukemic cell (or tumor cell) colonies were enumerated using an inverted phase-contrast microscope. The percent inhibition of colony formation was calculated using the following formula:
% Inhibition=1−mean number of colonies in test culture×100 mean number of colonies in control culture

COc1cc2ncnc(Nc3ccc(O)cc3)c2cc1OC [WHI-P131, 4-(4′-hydroxyl-phenyl)-amino-6,7-dimethoxyquinazoline]
diabetic mice post adoptive transfer [1]: 8%
inhibition at 30 µM [2]: ~90%
diabetes incidence ([3]; 20 mg/kg daily, till 18 wks of age): 56%
age at which mice started to develop diabetes ([3]; 50 mg/kg daily from 5 wks, control 13 wks): 22 wks
diabetes incidence ([3]; 50 mg/kg daily, 5 to 25 wks of age, at 25 wks): 18%
diabetes incidence ([3]; 100 mg/kg, 'the first treatment', at 25 wks of age, p=0.007): 9%
diabetes incidence ([3]; 100 mg/kg, 'the later one', at 25 wks of age, p=0.025): 18%
age at which diabetes started ([3]; 100 mg/kg, short course wks 5 to 9): 10 wks
diabetes incidence ([3]; 100 mg/kg, short course wks 5 to 9, by 25 wks of age): 83%
Insulitis score ([3]; 100 mg/kg, treated from 5-25 wks of age, controls 1.43±0.15): 0.86±0.12
Insulitis score ([3]; 100 mg/kg, treated from 10-25 wks of age): 1.42±0.24
inhibition at 100 µM ([4]; Homo sapiens, NALM-6, 100 μM, 'these leukemia cell lines', read-out: inhibition of in vitro colony formation): > 99%
inhibition at 0.1 µM ([4]; Homo sapiens, NALM-6, 0.1 μM): 0%
inhibition at 1 µM ([4]; Homo sapiens, NALM-6, 1 μM): 0%
inhibition at 10 µM ([4]; Homo sapiens, NALM-6, 10 μM): 33.2%
inhibition at 100 µM ([4]; Homo sapiens, NALM-6, 100 μM, read-out: % Inhibition): > 99.9%
EC50 ([4]; Homo sapiens, NALM-6 cells, read-out: EC50, inhibition of clonogenic growth): 24.4 µM
Mean No. of Colonies/10^5 Cells ([4]; NALM-6, 0.1 μM): 2970 (2756, 3184)
Mean No. of Colonies/10^5 Cells ([4]; NALM-6, 1 μM): 3180 (3080, 3136)
Mean No. of Colonies/10^5 Cells ([4]; NALM-6, 10 μM): 1932 (1864, 2000)
Mean No. of Colonies/10^5 Cells ([4]; NALM-6, 100 μM): 2 (2, 2)

Source: patent US6469013B2, “Therapeutic compounds” (Parker Hughes Institute, priority 1998, dated 2002)
